System: Boophilus microplus
Test: Boophilus microplus test (injection)
Assay type: in vivo
Conditions: application rate 20 μg/animal, adult engorged females, after 7 days
Experimental: Solvent: dimethyl sulfoxide
To produce a suitable preparation of active compound, 10 mg of active compound are dissolved in 0.5 ml solvent, and the concentrate is diluted with solvent to the desired concentration. Five adult engorged female ticks (Boophilus microplus) are injected with compound solution into the abdomen. Ticks are transferred into replica plates and incubated in a climate chamber for a period of time. Egg deposition of fertile eggs is monitored. After 7 days mortality in % is determined 100% means that all eggs are infertile; 0% means that all eggs are fertile.

| SMILES | activity (100% means that all eggs are infertile) |
| --- | --- |
| CC(C)C(=O)NCc1ccc(N2CCC(c3cc(Cl)cc(Cl)c3)(C(F)(F)F)C2)cc1Cl (centres unmarked) [1-3] | 100% |
| O=C(NCc1ccc(N2CCC(c3cc(Cl)cc(Cl)c3)(C(F)(F)F)C2)cc1Cl)C1CC1 (centres unmarked) [1-4] | 100% |
| O=C(NCc1ccc(N2CCC(c3cc(Cl)cc(Cl)c3)(C(F)(F)F)C2)cc1Cl)C1CCC1 (centres unmarked) [1-8] | 100% |
| O=C(CC1CC1)NCc1ccc(N2CCC(c3cc(Cl)cc(Cl)c3)(C(F)(F)F)C2)cc1Cl (centres unmarked) [1-12] | 100% |
| O=C(CC(F)(F)F)NCc1ccc(N2CCC(c3cc(Cl)cc(Cl)c3)(C(F)(F)F)C2)cc1Cl (centres unmarked) [1-19] | 100% |
| O=C(NCc1ccc(N2CCC(c3cc(Cl)cc(Cl)c3)(C(F)(F)F)C2)cc1Cl)C(F)F (centres unmarked) [1-21] | 100% |
| O=C(NCc1ccc(N2CCC(c3cc(Cl)cc(Cl)c3)(C(F)(F)F)C2)cc1Cl)C1CC1(Cl)Cl (centres unmarked) [1-24] | 100% |
| O=C(NCc1ccc(N2CCC(c3cc(Cl)cc(Cl)c3)(C(F)(F)F)C2)cc1Cl)C1CC1(F)F (centres unmarked) [1-25] | 100% |
| CC=CC(=O)NCc1ccc(N2CCC(c3cc(Cl)cc(Cl)c3)(C(F)(F)F)C2)cc1Cl (centres unmarked) [1-30] | 100% |
| C=CCC(=O)NCc1ccc(N2CCC(c3cc(Cl)cc(Cl)c3)(C(F)(F)F)C2)cc1Cl (centres unmarked) [1-36] | 100% |
| COCC(=O)NCc1ccc(N2CCC(c3cc(Cl)cc(Cl)c3)(C(F)(F)F)C2)cc1Cl (centres unmarked) [1-40] | 100% |
| CSCC(=O)NCc1ccc(N2CCC(c3cc(Cl)cc(Cl)c3)(C(F)(F)F)C2)cc1Cl (centres unmarked) [1-42] | 100% |
| CN(Cc1ccc(N2CCC(c3cc(Cl)cc(Cl)c3)(C(F)(F)F)C2)cc1Cl)C(=O)CC(F)(F)F (centres unmarked) [1-75] | 100% |
| O=C(NCc1ccc(N2CCC(c3cc(Cl)cc(Cl)c3)(C(F)(F)F)C2)cc1Cl)NC1CC1 (centres unmarked) [1-81] | 100% |
| C#CCNC(=O)NCc1ccc(N2CCC(c3cc(Cl)cc(Cl)c3)(C(F)(F)F)C2)cc1Cl (centres unmarked) [1-88] | 100% |
| CCNC(=O)N(C)Cc1ccc(N2CCC(c3cc(Cl)cc(Cl)c3)(C(F)(F)F)C2)cc1Cl (centres unmarked) [1-113] | 100% |
| NCc1ccc(N2CCC(c3cc(Cl)cc(Cl)c3)(C(F)(F)F)C2)cc1C(F)(F)F (centres unmarked) [1-141] | 100% |
| CC(C)C(=O)NCc1ccc(N2CCC(c3cc(Cl)cc(Cl)c3)(C(F)(F)F)C2)cc1C(F)(F)F (centres unmarked) [1-145] | 100% |
| O=C(NCc1ccc(N2CCC(c3cc(Cl)cc(Cl)c3)(C(F)(F)F)C2)cc1C(F)(F)F)C1CC1 (centres unmarked) [1-146] | 100% |
| O=C(NCc1ccc(N2CCC(c3cc(Cl)cc(Cl)c3)(C(F)(F)F)C2)cc1C(F)(F)F)C1CCC1 (centres unmarked) [1-150] | 100% |
| O=C(CC1CC1)NCc1ccc(N2CCC(c3cc(Cl)cc(Cl)c3)(C(F)(F)F)C2)cc1C(F)(F)F (centres unmarked) [1-155] | 100% |
| C=CC(=O)NCc1ccc(N2CCC(c3cc(Cl)cc(Cl)c3)(C(F)(F)F)C2)cc1C(F)(F)F (centres unmarked) [1-173] | 100% |
| C=CCC(=O)NCc1ccc(N2CCC(c3cc(Cl)cc(Cl)c3)(C(F)(F)F)C2)cc1C(F)(F)F (centres unmarked) [1-180] | 100% |
| N#CCC(=O)NCc1ccc(N2CCC(c3cc(Cl)cc(Cl)c3)(C(F)(F)F)C2)cc1C(F)(F)F (centres unmarked) [1-183] | 100% |

| SMILES | activity (100% means that all eggs are infertile) |
| --- | --- |
| CSCC(=O)NCc1ccc(N2CCC(c3cc(Cl)cc(Cl)c3)(C(F)(F)F)C2)cc1C(F)(F)F (centres unmarked) [1-186] | 100% |
| CC(=O)OCC(=O)NCc1ccc(N2CCC(c3cc(Cl)cc(Cl)c3)(C(F)(F)F)C2)cc1C(F)(F)F (centres unmarked) [1-188] | 100% |
| CCCNC(=O)NCc1ccc(N2CCC(c3cc(Cl)cc(Cl)c3)(C(F)(F)F)C2)cc1C(F)(F)F (centres unmarked) [1-222] | 100% |
| O=C(NCc1ccc(N2CCC(c3cc(Cl)cc(Cl)c3)(C(F)(F)F)C2)cc1C(F)(F)F)NC1CC1 (centres unmarked) [1-224] | 100% |
| O=C(NCc1ccc(N2CCC(c3cc(Cl)cc(Cl)c3)(C(F)(F)F)C2)cc1C(F)(F)F)NC1CCC1 (centres unmarked) [1-227] | 100% |
| O=C(NCc1ccc(N2CCC(c3cc(Cl)cc(Cl)c3)(C(F)(F)F)C2)cc1C(F)(F)F)NCC1CC1 (centres unmarked) [1-232] | 100% |
| O=C(NCc1ccccn1)NCc1ccc(N2CCC(c3cc(Cl)cc(Cl)c3)(C(F)(F)F)C2)cc1C(F)(F)F (centres unmarked) [1-254] | 100% |
| CNC(=O)N(C)Cc1ccc(N2CCC(c3cc(Cl)cc(Cl)c3)(C(F)(F)F)C2)cc1C(F)(F)F (centres unmarked) [1-258] | 100% |
| CN(Cc1ccc(N2CCC(c3cc(Cl)cc(Cl)c3)(C(F)(F)F)C2)cc1C(F)(F)F)C(=O)NC1CC1 (centres unmarked) [1-260] | 100% |
| CC(C)(C)OC(=O)NCc1ccc(N2CCC(c3cc(Cl)cc(Cl)c3)(C(F)(F)F)C2)cc1C(F)(F)F (centres unmarked) [1-270] | 100% |
| CCC(=O)NCc1ccc(N2CCC(c3cc(Cl)cc(Cl)c3)(C(F)(F)F)C2)cc1Br (centres unmarked) [1-285] | 100% |
| NCc1ccc(N2CCC(c3cc(C(F)(F)F)cc(C(F)(F)F)c3)(C(F)(F)F)C2)cc1C(F)(F)F (centres unmarked) [1-295] | 100% |
| O=C(CC(F)(F)F)NCc1ccc(N2CCC(c3cc(C(F)(F)F)cc(C(F)(F)F)c3)(C(F)(F)F)C2)cc1C(F)(F)F (centres unmarked) [1-296] | 100% |
| COC(=O)NCc1ccc(N2CCC(c3cc(C(F)(F)F)cc(C(F)(F)F)c3)(C(F)(F)F)C2)cc1C(F)(F)F (centres unmarked) [1-298] | 100% |
| CCOC(=O)NCc1ccc(N2CCC(c3cc(C(F)(F)F)cc(C(F)(F)F)c3)(C(F)(F)F)C2)cc1C(F)(F)F (centres unmarked) [1-299] | 100% |
| CC(C)(C)OC(=O)NCc1ccc(N2CCC(c3cc(C(F)(F)F)cc(C(F)(F)F)c3)(C(F)(F)F)C2)cc1C(F)(F)F (centres unmarked) [1-300] | 100% |
| CCCNC(=O)NCc1ccc(N2CCC(c3cc(C(F)(F)F)cc(C(F)(F)F)c3)(C(F)(F)F)C2)cc1C(F)(F)F (centres unmarked) [1-303] | 100% |
| CC(C)NC(=O)NCc1ccc(N2CCC(c3cc(C(F)(F)F)cc(C(F)(F)F)c3)(C(F)(F)F)C2)cc1C(F)(F)F (centres unmarked) [1-304] | 100% |
| O=C(NCc1ccc(N2CCC(c3cc(C(F)(F)F)cc(C(F)(F)F)c3)(C(F)(F)F)C2)cc1Cl)C1CC1 (centres unmarked) [1-308] | 100% |
| CCC(=O)NCc1ccc(N2CCC(c3cc(C(F)(F)F)cc(C(F)(F)F)c3)(C(F)(F)F)C2)cc1Br (centres unmarked) [1-312] | 100% |
| CC(=O)NCc1ccc(N2CCC(c3cc(C(F)(F)F)cc(C(F)(F)F)c3)(C(F)(F)F)C2)cc1[N+](=O)[O-] (centres unmarked) [1-317] | 100% |
| O=C(NCc1ccc(N2CCC(c3cc(C(F)(F)F)cc(C(F)(F)F)c3)(C(F)(F)F)C2)cc1[N+](=O)[O-])C1CC1 (centres unmarked) [1-319] | 100% |
| O=C(CC(F)(F)F)NCc1ccc(N2CCC(c3cc(Cl)c(Cl)c(Cl)c3)(C(F)(F)F)C2)cc1C(F)(F)F (centres unmarked) [1-327] | 100% |

— US9266830B2, “Pesticidal arylpyrrolidines” (Bayer Intellectual Property GmbH, priority 2007, dated 2016)
